Measured values as given in patent publication US4418065A, “Halophenyl-pyridyl-allylamine derivatives and use” (priority 1979, dated 1983).
Where a name gives a salt, the structure may show the parent alone. Read-outs that look alike come from different tables or passages of the source.

How the values were obtained:
[1] = test system: neuronal uptake of 5-hydroxytryptamine; experiment: Inhibition of the uptake of ^14 C-5-HT in vivo (i.p. administration, hypothalamus slices); design: species or system mouse; details: for ED50: Mus musculus, ip, 0.5 h, read-out: Uptake of ^14 C-5-HT in vivo ED50; for Percentage inhibition of ^14 C-5-HT uptake at the highest dose examined: in vivo, at the highest dose examined (the > value, μmole/kg)
Description: (§1) The test substances were administered intraperitoneally half an hour before the animals were killed. […] The incubation time was 5 minutes with 5 minutes of preincubation before the labelled amines were added. The slices were dissolved in Soluene® and the amounts of radioactive amines taken up were determined by liquid scintillation. […] Active uptake is defined as that part of the radioactive uptake which is inhibited by a high concentration of cocaine.

[2] = test system: neuronal uptake of noradrenaline; experiment: Inhibition of the uptake of ^3 H-NA in vivo (i.p. administration, hypothalamus slices); design: species or system mouse; details: for ED50: Mus musculus, ip, 0.5 h, read-out: Uptake of ^3 H-NA in vivo ED50; for Percentage inhibition of ^3 H-NA uptake at the highest dose examined: in vivo, at the highest dose examined (the > value, μmole/kg)
Description: as §1

[3] = test system: neuronal uptake of 5-hydroxytryptamine; experiment: Inhibition of the uptake of ^14 C-5-HT in vitro (slices of mouse midbrain); type: biochemical; details: for EC50: in vitro, mouse brain slices, 1×10^-7 M ^14 C-5-HT, 5 min
Description: as §1
(§2) In the in vitro method slices of mouse midbrain were preincubated for 5 minutes with solution of the compound to be tested and then incubated as described above.

[4] = test system: neuronal uptake of noradrenaline; experiment: Inhibition of the uptake of ^3 H-NA in vitro (slices of mouse midbrain); type: biochemical; details: for EC50: mouse brain slices, 1×10^-7 M ^3 H-NA, 5 min
Description: as §1, §2

[5] = i.p., half an hour before the animals were killed, 50 percent decrease of active uptake

In the case of CN(C)CC=C(c1cccnc1)c1ccc(Cl)cc1Cl [2,4-di Cl CH3 E/Z 1:1, 3-(2,4-dichlorophenyl)-N,N-dimethyl-3-(3-pyridyl)-allylamine], the ED50 [1, 5] is reported as 42 µmol/kg and the ED50 [2] is reported as 63 µmol/kg.
Molecule CNCC=C(c1cccnc1)c1ccc(Cl)cc1Cl [2,4-di Cl H E/Z 1:1, 3-(2,4-dichlorophenyl)-N-methyl-3-(3-pyridyl)-allylamine] has an EC50 [3] of 500 nM, an ED50 [1, 5] of 60 µmol/kg and an EC50 [4] of 900 nM. For the same molecule, the ED50 [2, 5] was 82 µmol/kg.
Work on CN(C)CC=C(c1cccnc1)c1ccccc1Br [2-Br CH3 E/Z 1:1, 3-(2-bromophenyl)-N,N-dimethyl-3-(3-pyridyl)-allylamine] yielded an EC50 [3] of 3500 nM, an ED50 [1, 5] of over 126 µmol/kg and an EC50 [4] of 2200 nM. The ED50 [2, 5] was 79 µmol/kg.
Molecule CNCC=C(c1cccnc1)c1ccccc1Br [2-Br H E/Z 1:1, 3-(2-bromophenyl)-N-methyl-3-(3-pyridyl)-allylamine] has an EC50 [3] of 1500 nM, an ED50 [1, 5] of over 132 µmol/kg and an EC50 [4] of 1400 nM. It also gave an ED50 [2] of 63 µmol/kg.
With CN(C)C/C=C(\c1ccc(Br)cc1)c1cccnc1 [4-Br CH3 E, reference compound] the ED50 [1, 5] was over 98 µmol/kg, the “Percentage inhibition of ^14 C-5-HT uptake at the highest dose examined” value ([1]; i.p.) was 36% and the ED50 [2, 5] was 25 µmol/kg.
For CN(C)C/C=C(/c1ccc(Br)cc1)c1cccnc1 [4-Br CH3 Z, (Z)-3-(4-bromophenyl)-N,N-dimethyl-3-(3-pyridyl)allylamine, reference compound], the ED50 [1, 5] was 49 µmol/kg, the ED50 [2, 5] was over 98 µmol/kg and the “Percentage inhibition of ^3 H-NA uptake at the highest dose examined” value ([2]; i.p.) was 26%.
CNC/C=C(\c1ccc(Br)cc1)c1cccnc1 [4-Br H E, reference compound] showed an ED50 [1, 5] of 102 µmol/kg and an ED50 [2, 5] of 25 µmol/kg.
CNC/C=C(/c1ccc(Br)cc1)c1cccnc1 [4-Br H Z, reference compound] was tested, and the ED50 [1, 5] was 15 µmol/kg, the ED50 [2, 5] was over 101 µmol/kg and the “Percentage inhibition of ^3 H-NA uptake at the highest dose examined” value ([2]; i.p.) was 38%.
For CN(C)C/C=C(\c1cccnc1)c1cccc(Cl)c1.O=C(O)C(=O)O [Example 1, (Z)-3-(3-chlorophenyl)-N,N-dimethyl-3-(3-pyridyl)allylamine oxalate], the EC50 [3] was 2700 nM, the ED50 [1, 5] was over 110 µmol/kg and the “Percentage inhibition of ^14 C-5-HT uptake at the highest dose examined” value ([1]; i.p.) was 12%. The EC50 [4] was 10000 nM, the ED50 [2, 5] was over 110 µmol/kg and the “Percentage inhibition of ^3 H-NA uptake at the highest dose examined” value ([2]; i.p.) was 41%.
CN(C)C/C=C(/c1ccc(Cl)cc1)c1cccnc1 [Example 2, (Z)-3-(4-chlorophenyl)-N,N-dimethyl-3-(3-pyridyl)allylamine oxalate] was tested, and the EC50 [3] was 1100 nM, the ED50 [1, 5] was 34 µmol/kg and the EC50 [4] was 1100 nM. The ED50 [2, 5] was 46 µmol/kg.
CNC/C=C(/c1ccc(Cl)cc1)c1cccnc1.O=C(O)C(=O)O [Example 3, (Z)-3-(4-Chlorophenyl)-N-methyl-3-(3-pyridyl)allylamine oxalate] was tested, and the ED50 [1, 5] was 19 µmol/kg and the ED50 [2, 5] was 23 µmol/kg.
Work on CN(C)CC=C(c1ccc(F)cc1)c1cccnc1 [Example 4, 3-(4-Fluorophenyl)-N,N-dimethyl-3-(3-pyridyl)allylamine oxalate] yielded an ED50 [1, 5] of 115 µmol/kg and an ED50 [2, 5] of 72 µmol/kg.
In the case of CNCC=C(c1ccc(F)cc1)c1cccnc1 [Example 5, 3-(4-Fluorophenyl)-N-methyl-3-(3-pyridyl)allylamine oxalate], the ED50 [1, 5] is reported as 72 µmol/kg and the ED50 [2, 5] is reported as 29 µmol/kg.
Molecule CN(C)C/C=C(\c1cccnc1)c1ccccc1Br [Example 6, (E)-3-(2-Bromophenyl)-N,N-dimethyl-3-(3-pyridyl)allylamine oxalate] has an EC50 [3] of 4200 nM, an ED50 [1, 5] of over 98 µmol/kg and an EC50 [4] of 2200 nM. For the same molecule, the ED50 [2, 5] was 37 µmol/kg.
In the case of CNC/C=C(\c1cccnc1)c1ccccc1Br [Example 7, (E)-3-(2-Bromophenyl)-N-methyl-3-(3-pyridyl)allylamine oxalate], the EC50 [3] is reported as 600 nM, the ED50 [1, 5] is reported as 102 µmol/kg and the EC50 [4] is reported as 300 nM. It also gave an ED50 [2, 5] of 20 µmol/kg.
Molecule CNC/C=C(\c1cccnc1)c1cccc(Br)c1 [Example 8, (Z)-3-(3-Bromophenyl)-N-methyl-3-(3-pyridyl)allylamine oxalate] has an EC50 [3] of 1400 nM, an ED50 [1, 5] of over 102 µmol/kg and an EC50 [4] of 900 nM. The ED50 [2, 5] was 58 µmol/kg.
Molecule CN(C)C/C=C(\c1cccnc1)c1ccc(Cl)cc1Cl [Example 9, (E)-3-(2,4-Dichlorophenyl)-N,N-dimethyl-3-(3-pyridyl)allylamine oxalate] has an ED50 [1, 5] of 43 µmol/kg and an ED50 [2, 5] of over 101 µmol/kg.
For CNC/C=C(\c1cccnc1)c1ccc(Cl)cc1Cl [Example 10, (E)-3-(2,4-Dichlorophenyl)-N-methyl-3-(3-pyridyl)allylamine oxalate], the EC50 [3] was 500 nM, the ED50 [1, 5] was 18 µmol/kg and the EC50 [4] was 2300 nM. For the same molecule, the ED50 [2, 5] was 73 µmol/kg.
For CN(C)C/C=C(/c1ccc(I)cc1)c1cccnc1.O=C(O)C(=O)O [Example 11, (Z)-3-(4-iodophenyl)-N,N-dimethyl-3-(3-pyridyl)allylamine oxalate], the “selectivity of the uptake inhibition (5-HT versus NA), in words” value ([3]; 5-HT versus NA uptake, brain slices) was “completely selective inhibitor of the 5-HT uptake”, the EC50 [3] was 1300 nM and the ED50 [1, 5] was 46 µmol/kg. The “Percentage inhibition of ^3 H-NA uptake at the highest concentration examined” value ([4]; at the highest concentration examined (the > value, μM)) was 33%, the EC50 [4] was over 22000 nM and the ED50 [2, 5] was over 88 µmol/kg. The “Percentage inhibition of ^3 H-NA uptake at the highest dose examined” value ([2]; i.p.) was 0%.
Molecule CN(C)C/C=C(\c1cccnc1)c1cccc(Br)c1 [Example 12, 3-(3-Bromophenyl)-N,N-dimethyl-3-(3-pyridyl)allylamine oxalate] has an ED50 [1, 5] of over 98 µmol/kg and an ED50 [2, 5] of 66 µmol/kg.
For CN(C)CCCN1c2ccccc2CCc2ccccc21 [Imipramine, reference compound], the ED50 [1] was 125 µmol/kg and the ED50 [2] was 63 µmol/kg.
